pIC50: −log10 of the molar value. Read-outs that look alike come from different tables or passages of the source. *1 amine or outer side, *2 acyl side, *3 side chain or, on linkers, in order; H or OH if unused. Where a SMILES comes first, the peptide text is derived from it. Bridges are numbered along the chain shown (N, C = ends). Roman numbers before positions name the chains, in order. [ ]: non-standard residue; d: D form. Actinocin(9to1) = Cc1c2oc3c(C)ccc(C(=O)[*:1])c3nc-2c(C(=O)[*:2])c(N)c1=O; NMeV = CN[C@H](C(=O)O)C(C)C; Sar = CNCC(=O)O
Columns and labels:
Assay in all cases: Growth inhibition (MTT) assay, with or without MDR modulators
[1] = tested on: MES-SA/DxP5002 (DxP) cells; details: for Fold resistance / Level of resistance of DxP cells to the cytotoxin compared with parental Dx5 (in words): DxP cells; for Dx5/DxP, fold of resistance difference in DxP cells compared with parental Dx5 cells: DxP vs Dx5
Method: Cells and Tissue Culture. […] Monolayer cultures of MES-SA cells and its variants were grown in McCoy's medium (Irvine Scientific, Santa Ana, Calif.) supplemented with 10% newborn calf serum (Gibco, Grand Island, N.Y.), 2 mM L-glutamine, and antibiotics(100 U/ml penicillin, 100 μg/ml streptomycin).
Growth Inhibition Assay. Approximately 8000 cells per well were seeded in 96 well plates and incubated with or without drugs for 72 hr at 37° C. in an atmosphere of 5% CO2. Growth inhibition was evaluated by the MTT colorimetric assay in triplicate or quadruplicate as previously described. The absorbance was measured with a ThermoMax microplate reader (Molecular Devices, Menlo Park, Calif.). […] The doubling times of MES-SA, D×5, and D×P were determined as previously described.
(§1) Reversal of MDR by Modulators. […] The modulation ratio was obtained by comparing IC50 s in the presence and absence of modulators.

MES-SA cells = format: cell-based, human; details: for pIC50: Homo sapiens, read-out: IC50 of drug-sensitive MES-SA cells (values in parenthesis)
Method: (§2) Cells and Tissue Culture. Details of the development and characterization of the human cell line MES-SA and its MDR variant MES-SA/Dx5 (D×5), which were derived from sarcoma elements of a uterine mixed Mullerian tumor, are described in Harker and Sikic (1985) Cancer Research 45:3810-3815. MES-SA/DxP5002 (DxP) cells were derived from Dx5.05 cells (D×5 cells selected and maintained at a DOX concentration of 0.5 μM) by step-wise selection in the presence of increasing DOX concentrations (from 40 nM up to 0.5 μM) and a constant PSC 833 concentration at 2 μM over a one-year period. Monolayer cultures of MES-SA cells and its variants were grown in McCoy's medium (Irvine Scientific, Santa Ana, Calif.) supplemented with 10% newborn calf serum (Gibco, Grand Island, N.Y.), 2 mM L-glutamine, and antibiotics(100 U/ml penicillin, 100 μg/ml streptomycin).
(§3) Growth Inhibition Assay. Approximately 8000 cells per well were seeded in 96 well plates and incubated with or without drugs for 72 hr at 37° C. in an atmosphere of 5% CO2. Growth inhibition was evaluated by the MTT colorimetric assay in triplicate or quadruplicate as previously described. The absorbance was measured with a ThermoMax microplate reader (Molecular Devices, Menlo Park, Calif.). The IC50 (drug concentration resulting in 50% inhibition of MTT dye formation, compared to controls) was determined directly from semi-logarithmic dose-response curves. The doubling times of MES-SA, D×5, and D×P were determined as previously described.
as §1

MES-SA/Dx5 (Dx5) cells = format: cell-based, human
Method: as §2, §3, §1

[2] = no modulator, relative to MES-SA
[3] = MES-SA cells, no modulator, 72 hr MTT

Structure (SMILES): COc1cc(NS(C)(=O)=O)ccc1Nc1c2ccccc2nc2ccccc12 [Amsacrine]
- Fold resistance [1, 2]: 2 fold
- Dx5/DxP, fold of resistance difference in DxP cells compared with parental Dx5 cells [1]: 13 fold
- pIC50 (MES-SA cells; MES-SA cells, 72 hr MTT): 7.00
- Fold resistance (MES-SA cells; [3]): 1 fold
- Fold resistance (MES-SA/Dx5 (Dx5) cells; [2]): 26 fold

Structure (SMILES): COc1cc2c(c(OC)c1OC)-c1ccc(OC)c(=O)cc1[C@@H](NC(C)=O)CC2 [Colchicine]
- Level of resistance of DxP cells to the cytotoxin compared with parental Dx5 (in words) [1]: high levels of resistance

Structure (SMILES): Cc1c2oc3c(C)ccc(C(=O)N[C@@H]4C(=O)N[C@H](C(C)C)C(=O)N5CCC[C@H]5C(=O)N(C)CC(=O)N(C)[C@@H](C(C)C)C(=O)O[C@@H]4C)c3nc-2c(C(=O)N[C@@H]2C(=O)N[C@H](C(C)C)C(=O)N3CCC[C@H]3C(=O)N(C)CC(=O)N(C)[C@@H](C(C)C)C(=O)O[C@@H]2C)c(N)c1=O [D actinomycin, dactinomycin] (I: T[dV]P[Sar][NMeV] / II: T[dV]P[Sar][NMeV]; ester I:1-I:C, II:1-II:C; linker I:N-II:N via Actinocin(9to1))
- Level of resistance of DxP cells to the cytotoxin compared with parental Dx5 (in words) [1]: completely restored
- Fold resistance [1, 2]: 1 fold
- Dx5/DxP, fold of resistance difference in DxP cells compared with parental Dx5 cells [1]: 183 fold
- pIC50 (MES-SA cells; MES-SA, 72 h): 9.52
- Fold resistance (MES-SA cells; [3]): 1 fold
- Fold resistance (MES-SA/Dx5 (Dx5) cells; [2]): 183 fold

Structure (SMILES): COc1cccc2c1C(=O)c1c(O)c3c(c(O)c1C2=O)C[C@@](O)(C(C)=O)C[C@@H]3O[C@H]1C[C@H](N)[C@H](O)[C@H](C)O1 [Daunorubicin]
- Level of resistance of DxP cells to the cytotoxin compared with parental Dx5 (in words) [1]: slightly decreased
- Fold resistance [1, 2]: 25 fold
- Dx5/DxP, fold of resistance difference in DxP cells compared with parental Dx5 cells [1]: 3 fold
- pIC50 (MES-SA cells; MES-SA, 72 h): 7.70
- Fold resistance (MES-SA cells; [3]): 1 fold
- Fold resistance (MES-SA/Dx5 (Dx5) cells; [2]): 75 fold

Structure (SMILES): COc1cc([C@@H]2c3cc4c(cc3[C@@H](O[C@@H]3O[C@@H]5CO[C@@H](C)O[C@H]5[C@H](O)[C@H]3O)[C@H]3COC(=O)[C@H]23)OCO4)cc(OC)c1O [Etoposide]
- Level of resistance of DxP cells to the cytotoxin compared with parental Dx5 (in words) [1]: moderately decreased resistance
- Fold resistance ([1]; +2 μM PSC 833): 18 fold
- Dx5/DxP, fold of resistance difference in DxP cells compared with parental Dx5 cells [1]: 2 fold
- pIC50 (MES-SA cells; MES-SA cells, 72 hr MTT): 6.30
- Fold resistance (MES-SA cells; MES-SA cells, +2 μM PSC 833): 1 fold
- Fold resistance (MES-SA cells; [3]): 1 fold
- Fold resistance (MES-SA/Dx5 (Dx5) cells; +2 μM PSC 833): 1 fold
- Fold resistance (MES-SA/Dx5 (Dx5) cells; [2]): 42 fold

Structure (SMILES): CC(=O)O[C@H]1C(=O)[C@@]2(C)[C@H]([C@H](OC(=O)c3ccccc3)[C@]3(O)C[C@H](OC(=O)[C@H](O)[C@@H](NC(=O)c4ccccc4)c4ccccc4)C(C)=C1C3(C)C)[C@]1(OC(C)=O)CO[C@@H]1C[C@@H]2O [Paclitaxel]
- Level of resistance of DxP cells to the cytotoxin compared with parental Dx5 (in words) [1]: high levels of resistance
- Fold resistance ([1]; +2 μM PSC 833): 5 fold
- Fold resistance ([1]; +3 μM cyclosporin A): 38 fold
- Fold resistance ([1]; +6 μM Verapamil): 44 fold
- Fold resistance [1, 2]: 100 fold
- Dx5/DxP, fold of resistance difference in DxP cells compared with parental Dx5 cells [1]: 2 fold
- pIC50 (MES-SA cells; MES-SA cells, 72 hr MTT): 9.00
- Fold resistance (MES-SA cells; MES-SA cells, +2 μM PSC 833): 0.3-1 fold
- Fold resistance (MES-SA cells; MES-SA cells, +3 μM cyclosporin A): 0.5-1 fold
- Fold resistance (MES-SA cells; MES-SA cells, +6 μM Verapamil): 0.3-1 fold
- Fold resistance (MES-SA cells; [3]): 1 fold
- Fold resistance (MES-SA/Dx5 (Dx5) cells; +2 μM PSC 833): 1 fold
- Fold resistance (MES-SA/Dx5 (Dx5) cells; +3 μM cyclosporin A): 13 fold
- Fold resistance (MES-SA/Dx5 (Dx5) cells; +6 μM Verapamil): 25 fold
- Fold resistance (MES-SA/Dx5 (Dx5) cells; [2]): 175 fold

Structure (SMILES): COc1cc([C@@H]2c3cc4c(cc3[C@@H](O[C@@H]3O[C@@H]5CO[C@@H](c6cccs6)O[C@H]5[C@H](O)[C@H]3O)[C@H]3COC(=O)[C@H]23)OCO4)cc(OC)c1O [Teniposide]
- Level of resistance of DxP cells to the cytotoxin compared with parental Dx5 (in words) [1]: moderately decreased resistance
- Fold resistance [1, 2]: 53 fold
- Dx5/DxP, fold of resistance difference in DxP cells compared with parental Dx5 cells [1]: 3 fold
- pIC50 (MES-SA cells; MES-SA cells, 72 hr MTT): 7.00
- Fold resistance (MES-SA cells; [3]): 1 fold
- Fold resistance (MES-SA/Dx5 (Dx5) cells; [2]): 135 fold

Structure (SMILES): CC[C@]1(O)C[C@H]2CN(CCc3c([nH]c4ccccc34)[C@@](C(=O)OC)(c3cc4c(cc3OC)N(C=O)[C@H]3[C@@](O)(C(=O)OC)[C@H](OC(C)=O)[C@]5(CC)C=CCN6CC[C@]43[C@@H]65)C2)C1 [Vincristine]
- Fold resistance ([1]; +2 μM PSC 833): 7 fold
- Fold resistance ([1]; +6 μM Verapamil): 3 fold
- Fold resistance [1, 2]: 8 fold
- Dx5/DxP, fold of resistance difference in DxP cells compared with parental Dx5 cells [1]: 25 fold
- pIC50 (MES-SA cells; MES-SA cells, 72 hr MTT): 8.70
- Fold resistance (MES-SA cells; MES-SA cells, +2 μM PSC 833): 0.7 fold
- Fold resistance (MES-SA cells; MES-SA cells, +6 μM Verapamil): 0.3-1 fold
- Fold resistance (MES-SA cells; [3]): 1 fold
- Fold resistance (MES-SA/Dx5 (Dx5) cells; +2 μM PSC 833): 1 fold
- Fold resistance (MES-SA/Dx5 (Dx5) cells; +6 μM Verapamil): 7 fold
- Fold resistance (MES-SA/Dx5 (Dx5) cells; [2]): 199 fold

Structure (SMILES): CCC1=C[C@@H]2CN(C1)Cc1c([nH]c3ccccc13)[C@@](C(=O)OC)(c1cc3c(cc1OC)N(C)[C@H]1[C@@](O)(C(=O)OC)[C@H](OC(C)=O)[C@]4(CC)C=CCN5CC[C@]31[C@@H]54)C2 [vinorelbine]
- Fold resistance [1, 2]: 2 fold
- Dx5/DxP, fold of resistance difference in DxP cells compared with parental Dx5 cells [1]: 9 fold
- pIC50 (MES-SA cells; MES-SA cells, 72 hr MTT): 7.22
- Fold resistance (MES-SA cells; [3]): 1 fold
- Fold resistance (MES-SA/Dx5 (Dx5) cells; [2]): 17 fold
